Reference: PubChem BioAssay (NCI)
“And” between values parts separate entries of the source, which are not always exact repeats. Equal values may be shown once.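 Cells were grown in 96-well plates and exposed to each compound for 48 hours at five concentrations; endpoints were interpolated linearly between bracketing concentrations, or set to the highest concentration if not reached. At the GI50, growth is halved. At the TGI there is no net growth.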

Experiments:
Test in all cases: NCI-60 cell line screen, 48 h
OVCAR-5 ovarian = tested on: OVCAR-5 ovarian
M14 melanoma = tested on: M14 melanoma
NCI/ADR-RES ovarian = tested on: NCI/ADR-RES ovarian
UACC-62 melanoma = tested on: UACC-62 melanoma
MOLT-4 leukemia = tested on: MOLT-4 leukemia
MCF7 breast = tested on: MCF7 breast
HCT-116 colon = tested on: HCT-116 colon
MDA-MB-231 breast = tested on: MDA-MB-231 breast
NCI-H23 lung = tested on: NCI-H23 lung
SR leukemia = tested on: SR leukemia
SW-620 colon = tested on: SW-620 colon
A498 renal = tested on: A498 renal
NCI-H226 lung = tested on: NCI-H226 lung
SK-MEL-5 melanoma = tested on: SK-MEL-5 melanoma
BT-549 breast = tested on: BT-549 breast
NCI-H460 lung = tested on: NCI-H460 lung
HOP-92 NSCLC = tested on: HOP-92 NSCLC
HS 578T breast = tested on: HS 578T breast
SK-OV-3 ovarian = tested on: SK-OV-3 ovarian
SNB-75 CNS = tested on: SNB-75 CNS
IGROV1 ovarian = tested on: IGROV1 ovarian
U251 CNS = tested on: U251 CNS
EKVX NSCLC = tested on: EKVX NSCLC
CAKI-1 renal = tested on: CAKI-1 renal
UO-31 renal = tested on: UO-31 renal
NCI-H522 lung = tested on: NCI-H522 lung
SF-295 CNS = tested on: SF-295 CNS
OVCAR-3 ovarian = tested on: OVCAR-3 ovarian
RXF 393 renal = tested on: RXF 393 renal
PC-3 prostate = tested on: PC-3 prostate
HT29 colon = tested on: HT29 colon
LOX IMVI melanoma = tested on: LOX IMVI melanoma
SN12C renal = tested on: SN12C renal
SK-MEL-28 melanoma = tested on: SK-MEL-28 melanoma
T-47D breast = tested on: T-47D breast
SK-MEL-2 melanoma = tested on: SK-MEL-2 melanoma
OVCAR-4 ovarian = tested on: OVCAR-4 ovarian
OVCAR-8 ovarian = tested on: OVCAR-8 ovarian
DU-145 prostate = tested on: DU-145 prostate
RPMI-8226 leukemia = tested on: RPMI-8226 leukemia
786-0 renal = tested on: 786-0 renal
ACHN renal = tested on: ACHN renal
MALME-3M melanoma = tested on: MALME-3M melanoma
TK-10 renal = tested on: TK-10 renal
COLO 205 colon = tested on: COLO 205 colon
HCT-15 colon = tested on: HCT-15 colon
SF-539 CNS = tested on: SF-539 CNS
MDA-MB-435 = tested on: MDA-MB-435
UACC-257 melanoma = tested on: UACC-257 melanoma
SNB-19 CNS = tested on: SNB-19 CNS
MDA-N = tested on: MDA-N
HCC-2998 colon = tested on: HCC-2998 colon
K-562 leukemia = tested on: K-562 leukemia
KM12 colon = tested on: KM12 colon
SF-268 CNS = tested on: SF-268 CNS
A549 NSCLC = tested on: A549 NSCLC
HOP-62 NSCLC = tested on: HOP-62 NSCLC
CCRF-CEM leukemia = tested on: CCRF-CEM leukemia
HL-60(TB) leukemia = tested on: HL-60(TB) leukemia

## Cc1cc(N2CCCCC2)nc2ccc(Cc3ccc4nc(N5CCCCC5)cc(C)c4c3)cc12
OVCAR-5 ovarian
  TGI: > 100 µM
M14 melanoma
  TGI: > 100 µM
NCI/ADR-RES ovarian
  TGI: > 100 µM
UACC-62 melanoma
  TGI: > 100 µM
MOLT-4 leukemia
  TGI: > 100 µM
MCF7 breast
  TGI: > 100 µM
HCT-116 colon
  TGI: > 100 µM
MDA-MB-231 breast
  TGI: > 100 µM
NCI-H23 lung
  TGI: > 100 µM
SR leukemia
  TGI: > 100 µM
SW-620 colon
  TGI: > 100 µM
A498 renal
  TGI: > 100 µM
NCI-H226 lung
  TGI: > 100 µM
SK-MEL-5 melanoma
  TGI: > 100 µM
BT-549 breast
  TGI: > 100 µM
NCI-H460 lung
  TGI: > 100 µM
HOP-92 NSCLC
  TGI: > 100 µM
HS 578T breast
  TGI: > 100 µM
SK-OV-3 ovarian
  TGI: > 100 µM
SNB-75 CNS
  TGI: > 100 µM
IGROV1 ovarian
  TGI: > 100 µM
U251 CNS
  TGI: > 100 µM
EKVX NSCLC
  TGI: > 100 µM
CAKI-1 renal
  TGI: > 100 µM
UO-31 renal
  TGI: > 100 µM
NCI-H522 lung
  TGI: > 100 µM
SF-295 CNS
  TGI: > 100 µM
OVCAR-3 ovarian
  TGI: > 100 µM
RXF 393 renal
  TGI: > 100 µM
PC-3 prostate
  TGI: > 100 µM
HT29 colon
  TGI: > 100 µM
LOX IMVI melanoma
  TGI: > 100 µM
SN12C renal
  TGI: > 100 µM
SK-MEL-28 melanoma
  TGI: > 100 µM
T-47D breast
  TGI: > 100 µM
SK-MEL-2 melanoma
  TGI: > 100 µM
OVCAR-4 ovarian
  TGI: > 100 µM
OVCAR-8 ovarian
  TGI: > 100 µM
DU-145 prostate
  TGI: > 100 µM
RPMI-8226 leukemia
  TGI: > 100 µM
786-0 renal
  TGI: > 100 µM
ACHN renal
  TGI: > 100 µM
MALME-3M melanoma
  TGI: > 100 µM
TK-10 renal
  TGI: > 100 µM
COLO 205 colon
  TGI: > 100 µM
HCT-15 colon
  TGI: > 100 µM
SF-539 CNS
  TGI: > 100 µM
MDA-MB-435
  TGI: > 100 µM
UACC-257 melanoma
  TGI: > 100 µM
SNB-19 CNS
  TGI: > 100 µM
MDA-N
  TGI: > 100 µM
HCC-2998 colon
  TGI: > 100 µM
K-562 leukemia
  TGI: > 100 µM
KM12 colon
  TGI: > 100 µM
SF-268 CNS
  TGI: > 100 µM
A549 NSCLC
  TGI: > 100 µM
HOP-62 NSCLC
  TGI: > 100 µM

## COC(=O)[C@@H](NS(=O)(=O)CC12CCC(CC1)C2(C)C)C(C)(C)C
OVCAR-5 ovarian
  TGI: > 100 µM
M14 melanoma
  TGI: > 100 µM
NCI/ADR-RES ovarian
  TGI: > 100 µM
UACC-62 melanoma
  TGI: > 100 µM
MOLT-4 leukemia
  TGI: 70 µM
MCF7 breast
  TGI: > 100 µM
HCT-116 colon
  TGI: > 100 µM
MDA-MB-231 breast
  TGI: > 100 µM
CCRF-CEM leukemia
  TGI: > 100 µM
NCI-H23 lung
  TGI: > 100 µM
SR leukemia
  TGI: > 100 µM
SW-620 colon
  TGI: > 100 µM
A498 renal
  TGI: > 100 µM
NCI-H226 lung
  TGI: > 100 µM
SK-MEL-5 melanoma
  TGI: > 100 µM
BT-549 breast
  TGI: > 100 µM
NCI-H460 lung
  TGI: > 100 µM
HOP-92 NSCLC
  TGI: > 100 µM
HS 578T breast
  TGI: > 100 µM
SK-OV-3 ovarian
  TGI: > 100 µM
SNB-75 CNS
  TGI: > 100 µM
IGROV1 ovarian
  TGI: > 100 µM
U251 CNS
  TGI: > 100 µM
EKVX NSCLC
  TGI: > 100 µM
CAKI-1 renal
  TGI: > 100 µM
UO-31 renal
  TGI: > 100 µM
NCI-H522 lung
  TGI: > 100 µM
SF-295 CNS
  TGI: > 100 µM
OVCAR-3 ovarian
  TGI: > 100 µM
RXF 393 renal
  TGI: > 100 µM
HT29 colon
  TGI: > 100 µM
LOX IMVI melanoma
  TGI: > 100 µM
SN12C renal
  TGI: > 100 µM
SK-MEL-28 melanoma
  TGI: > 100 µM
T-47D breast
  TGI: > 100 µM
SK-MEL-2 melanoma
  TGI: > 100 µM
OVCAR-4 ovarian
  TGI: > 100 µM
OVCAR-8 ovarian
  TGI: > 100 µM
DU-145 prostate
  TGI: > 100 µM
HL-60(TB) leukemia
  TGI: > 100 µM
786-0 renal
  TGI: > 100 µM
ACHN renal
  TGI: > 100 µM
MALME-3M melanoma
  TGI: > 100 µM
TK-10 renal
  TGI: > 100 µM
COLO 205 colon
  TGI: > 100 µM
HCT-15 colon
  TGI: > 100 µM
SF-539 CNS
  TGI: > 100 µM
MDA-MB-435
  TGI: > 100 µM
UACC-257 melanoma
  TGI: > 100 µM
SNB-19 CNS
  TGI: > 100 µM
MDA-N
  TGI: > 100 µM
HCC-2998 colon
  TGI: > 100 µM
K-562 leukemia
  TGI: > 100 µM
KM12 colon
  TGI: > 100 µM
SF-268 CNS
  TGI: > 100 µM
A549 NSCLC
  TGI: > 100 µM

## CC(=O)OCC1OC(SC2=NC(=O)CS2)C(OC(C)=O)C(OC(C)=O)C1OC(C)=O (stereo not drawn)
OVCAR-5 ovarian
  TGI: > 100 µM
M14 melanoma
  TGI: > 100 µM
NCI/ADR-RES ovarian
  TGI: > 100 µM
UACC-62 melanoma
  TGI: > 100 µM
MOLT-4 leukemia
  TGI: > 100 µM
MCF7 breast
  TGI: > 100 µM
MDA-MB-231 breast
  TGI: > 100 µM
CCRF-CEM leukemia
  TGI: > 100 µM
NCI-H23 lung
  TGI: > 100 µM
SR leukemia
  TGI: > 100 µM
SW-620 colon
  TGI: > 100 µM
A498 renal
  TGI: > 100 µM
NCI-H226 lung
  TGI: > 100 µM
SK-MEL-5 melanoma
  TGI: > 100 µM
BT-549 breast
  TGI: > 100 µM
NCI-H460 lung
  TGI: > 100 µM
HS 578T breast
  TGI: > 100 µM
SK-OV-3 ovarian
  TGI: > 100 µM
SNB-75 CNS
  TGI: > 100 µM
IGROV1 ovarian
  TGI: > 100 µM
CAKI-1 renal
  TGI: > 100 µM
UO-31 renal
  TGI: > 100 µM
NCI-H522 lung
  TGI: > 100 µM
SF-295 CNS
  TGI: > 100 µM
OVCAR-3 ovarian
  TGI: > 100 µM
RXF 393 renal
  TGI: > 100 µM
PC-3 prostate
  TGI: > 100 µM
HT29 colon
  TGI: > 100 µM
LOX IMVI melanoma
  TGI: > 100 µM
SN12C renal
  TGI: > 100 µM
SK-MEL-28 melanoma
  TGI: > 100 µM
T-47D breast
  TGI: > 100 µM
SK-MEL-2 melanoma
  GI50: > 100 µM and 27.1 µM
  TGI: > 100 µM
OVCAR-8 ovarian
  TGI: > 100 µM
DU-145 prostate
  TGI: > 100 µM
HL-60(TB) leukemia
  TGI: 91.2 µM and 70.7 µM
RPMI-8226 leukemia
  TGI: 90 µM and > 100 µM
786-0 renal
  TGI: > 100 µM
ACHN renal
  TGI: > 100 µM
MALME-3M melanoma
  TGI: > 100 µM
TK-10 renal
  TGI: > 100 µM
HCT-15 colon
  GI50: 26.3 µM and 53 µM
  TGI: > 100 µM
SF-539 CNS
  TGI: > 100 µM
MDA-MB-435
  TGI: > 100 µM
UACC-257 melanoma
  TGI: > 100 µM
SNB-19 CNS
  TGI: > 100 µM
MDA-N
  TGI: > 100 µM
HCC-2998 colon
  TGI: > 100 µM
K-562 leukemia
  TGI: > 100 µM
KM12 colon
  TGI: > 100 µM
SF-268 CNS
  TGI: > 100 µM
A549 NSCLC
  TGI: > 100 µM
HOP-62 NSCLC
  TGI: > 100 µM
